Key:
Assay type in all cases: in vivo
Tall fescue v. Coronado [1] = test: Phytotoxicity of granule formulations with safeners (Table B4.4); conditions: 8 DAT
Procedure: (§1) The phytotoxicity to turfgrass of the compound of formula I in combination with various safeners was tested. The combinations were applied by post emergence spray application. Percentage phytotoxicity assessments were taken at various timepoints. The safeners tested in these trials were cloquintocet-mexyl, cyprosulfamide, a compound of formula 2.3, and isoxadifen-ethyl.
Tables B4.4 and B4.5 present the results of trials using safeners applied in combination with granule formulations of the compound of formula I.

[2] = test system: Trifolium repens (clover); test: Weed control via post emergence spray, in bluegrass/fescue mix (Table B5.6)
Procedure: (§2) The weed control efficacy of the compound of formula I was tested. The compound was applied via post emergence spray to a range of weeds, at various rates and spray treatment treatment regimes. Percentage weed control assessments were taken at various timepoints.

Tall fescue = test: Selective post-emergence herbicidal action, field trial Champaign (Table B1.1); conditions: 22 days after application
Procedure: (§3) The selectivity of the compound of formula I in turf (removal of grassy and broadleaf weeds) has been tested in turfgrass varieties selected from Kentucky bluegrass, tall fescue and perennial ryegrass and in […] selected from clover (an aggressive perennial weed) and dandelion (a weed of perennial horticultural crops and gardens which may also be a problem in some annual crops, particularly where reduced tillage is practiced).
(§4) The trials were conducted in Champaign, Ill., U.S. (Table B1.1) and Hudson, N.Y., U.S. (Table B1.2) under field conditions. Turfgrasses were maintained at approximately a 2.5″ height, like a home lawn. Mixed turf and weed stands were present. The test compounds were applied with a CO2 pressurized backpack sprayer by spraying in the form of an aqueous suspension (prepared from a wettable powder) in a concentration of 210 to 280 g/ha. The plots were then mowed and irrigated as needed. After 22 and 28 days respectively, the test is visually evaluated (100%=total damage to plant; 0%=no damage to plant).

Clover = test: as above; conditions: 22 days after application
Procedure: as §3, §4

Kentucky blue grass = test: as above; conditions: 22 days after application
Procedure: as §3, §4

Perennial ryegrass = test: as above; conditions: 22 days after application
Procedure: as §3, §4

Zoysiagrass v. Empire = test: Phytotoxicity in combination with safeners, post emergence spray (Table B4.1); conditions: no safener, 100 g ai/ha
Procedure: as §1

[3] = test system: Hydrocotyle sp. (dollarweed); test: Weed control via post emergence spray, in St. Augustinegrass v. Floratam (Table B5.3)
Procedure: as §2

St. Augustinegrass = test: Phytotoxicity via post emergence spray application (Table B2.1)
Procedure: The phytotoxicity of the compound of formula I to turfgrass species was tested. The compound was applied via post emergence spray to a range of warm and cool season turfgrass species at various rates and spray treatment treatment regimes. Percentage phytotoxicity assessments were taken at various timepoints.

[4] = test system: Hydrocotyle sp. (dollarweed); test: Example B7, conclusion in words
Procedure: The weed control efficacy of the compound of formula I in combination with various safeners was tested. The combinations were applied by post emergence spray application. Percentage weed control assessments were taken at various timepoints.

Tall fescue v. Coronado [5] = test: Phytotoxicity via granule application, various inert granules (Table B3.3); conditions: 8 DAT
Procedure: The phytotoxicity of the compound of formula I to turfgrass species was tested. The compound was applied by distribution of granule formulations of formula I, post emergence, to turfgrass species at two rates. All treatments were watered-in 1 day after application. Percentage phytotoxicity assessments were taken at various timepoints.
In Tables B3.3 and B3.4, the granular formulations tested were made by spraying the compound of formula I onto various inert granules. In each of these trials, the granule formulations were tested at a higher rate than the corresponding spray application

Compound: COCCOCc1nc(C(F)(F)F)ccc1C(=O)C1=C(O)C2CCC(C2)C1=O (centres unmarked) [Formula I, 4-Hydroxy-3-[2-(2-methoxyethoxymethyl)-6-trifluoromethylpyridine-3-carbonyl]-bicyclo[3.2.1]oct-3-en-2-one]
- % phytotoxicity (Tall fescue v. Coronado [1]; DG Lite granule, no safener, 680 g ai/ha): 20.0%
- % phytotoxicity (Tall fescue v. Coronado [1]; DG Lite granule, safener Cyprosulfamide (0.07%), 680 g ai/ha): 22.5%
- % phytotoxicity (Tall fescue v. Coronado [1]; DG Lite granule, safener Formula 2.3 (0.07%), 680 g ai/ha): 16.3%
- % phytotoxicity (Tall fescue v. Coronado [1]; DG Lite granule, safener Isoxadifen (0.07%), 680 g ai/ha): 21.3%
- % phytotoxicity (Tall fescue v. Coronado [1]; Spray, no safener, 340 g ai/ha): 18.8%
- % control ([2]; 10 g ai/ha, 7 DAT): 0.00%
- % control ([2]; 10 g ai/ha, 14 DAT): 21.25%
- % control ([2]; 10 g ai/ha, 22 DAT): 23.75%
- % control ([2]; 10 g ai/ha, 29 DAT): 8.75%
- % control ([2]; 10 g ai/ha, 46 DAT): 10.00%
- % control ([2]; 20 g ai/ha, 7 DAT): 0.00%
- % control ([2]; 20 g ai/ha, 14 DAT): 22.50%
- % control ([2]; 20 g ai/ha, 22 DAT): 28.75%
- % control ([2]; 20 g ai/ha, 29 DAT): 22.50%
- % control ([2]; 20 g ai/ha, 46 DAT): 28.75%
- % control ([2]; 40 g ai/ha, 7 DAT): 11.25%
- % control ([2]; 40 g ai/ha, 14 DAT): 21.25%
- % control ([2]; 40 g ai/ha, 22 DAT): 22.50%
- % control ([2]; 40 g ai/ha, 29 DAT): 35.00%
- % control ([2]; 40 g ai/ha, 46 DAT): 47.50%
- % control ([2]; 80 g ai/ha, 7 DAT): 17.50%
- % control ([2]; 80 g ai/ha, 14 DAT): 22.50%
- % control ([2]; 80 g ai/ha, 22 DAT): 30.00%
- % control ([2]; 80 g ai/ha, 29 DAT): 52.50%
- % control ([2]; 80 g ai/ha, 46 DAT): 81.25%
- % control ([2]; 160 g ai/ha, 7 DAT): 22.50%
- % control ([2]; 160 g ai/ha, 14 DAT): 27.50%
- % control ([2]; 160 g ai/ha, 22 DAT): 41.25%
- % control ([2]; 160 g ai/ha, 29 DAT): 76.25%
- % control ([2]; 160 g ai/ha, 46 DAT): 91.25%
- % damage (Tall fescue; 210 g/ha): 0%
- % damage (Tall fescue; 280 g/ha): 0%
- % damage (Clover; 210 g/ha): 88%
- % damage (Clover; 280 g/ha): 92%
- % damage (Kentucky blue grass; 210 g/ha): 0%
- % damage (Kentucky blue grass; 280 g/ha): 0%
- % damage (Perennial ryegrass; 210 g/ha): 0%
- % damage (Perennial ryegrass; 280 g/ha): 0%
- % phytotoxicity (Zoysiagrass v. Empire; 6 DAT): 11.70%
- % phytotoxicity (Zoysiagrass v. Empire; 12 DAT): 63.30%
- % phytotoxicity (Zoysiagrass v. Empire; 19 DAT): 68.30%
- % phytotoxicity (Zoysiagrass v. Empire; 27 DAT): 51.70%
- % phytotoxicity (Zoysiagrass v. Empire; 35 DAT): 40.00%
- % control ([3]; 1 appl, 140 g ai/ha, 5 DAT): 10.00%
- % control ([3]; 1 appl, 140 g ai/ha, 13 DAT): 60.00%
- % control ([3]; 1 appl, 140 g ai/ha, 21 DAT): 50.00%
- % control ([3]; 1 appl, 280 g ai/ha, 5 DAT): 15.00%
- % control ([3]; 1 appl, 280 g ai/ha, 13 DAT): 57.50%
- % control ([3]; 1 appl, 280 g ai/ha, 21 DAT): 60.00%
- % control ([3]; 2 appl, 140 g ai/ha, 5 DAT): 15.00%
- % control ([3]; 2 appl, 140 g ai/ha, 13 DAT): 55.00%
- % control ([3]; 2 appl, 140 g ai/ha, 21 DAT): 52.50%
- % control ([3]; 2 appl, 280 g ai/ha, 5 DAT): 20.00%
- % control ([3]; 2 appl, 280 g ai/ha, 13 DAT): 65.00%
- % control ([3]; 2 appl, 280 g ai/ha, 21 DAT): 62.50%
- % phytotoxicity (St. Augustinegrass; 1 appl, 140 g ai/ha, 8 DAT): 36.67%
- % phytotoxicity (St. Augustinegrass; 1 appl, 140 g ai/ha, 14 DAT): 28.33%
- % phytotoxicity (St. Augustinegrass; 1 appl, 140 g ai/ha, 29 DAT): 0.00%
- % phytotoxicity (St. Augustinegrass; 1 appl, 140 g ai/ha, 35 DAT): 0.00%
- % phytotoxicity (St. Augustinegrass; 1 appl, 140 g ai/ha, 43 DAT): 0.00%
- % phytotoxicity (St. Augustinegrass; 1 appl, 140 g ai/ha, 51 DAT): 0.00%
- % phytotoxicity (St. Augustinegrass; 1 appl, 280 g ai/ha, 8 DAT): 40.00%
- % phytotoxicity (St. Augustinegrass; 1 appl, 280 g ai/ha, 14 DAT): 43.33%
- % phytotoxicity (St. Augustinegrass; 1 appl, 280 g ai/ha, 29 DAT): 0.00%
- % phytotoxicity (St. Augustinegrass; 1 appl, 280 g ai/ha, 35 DAT): 0.00%
- % phytotoxicity (St. Augustinegrass; 1 appl, 280 g ai/ha, 43 DAT): 0.00%
- % phytotoxicity (St. Augustinegrass; 1 appl, 280 g ai/ha, 51 DAT): 0.00%
- % phytotoxicity (St. Augustinegrass; 2 appl, 140 g ai/ha, 8 DAT): 43.33%
- % phytotoxicity (St. Augustinegrass; 2 appl, 140 g ai/ha, 14 DAT): 40.00%
- % phytotoxicity (St. Augustinegrass; 2 appl, 140 g ai/ha, 29 DAT): 0.00%
- % phytotoxicity (St. Augustinegrass; 2 appl, 140 g ai/ha, 35 DAT): 28.33%
- % phytotoxicity (St. Augustinegrass; 2 appl, 140 g ai/ha, 43 DAT): 8.33%
- % phytotoxicity (St. Augustinegrass; 2 appl, 140 g ai/ha, 51 DAT): 1.67%
- % phytotoxicity (St. Augustinegrass; 2 appl, 280 g ai/ha, 8 DAT): 41.67%
- % phytotoxicity (St. Augustinegrass; 2 appl, 280 g ai/ha, 14 DAT): 51.67%
- % phytotoxicity (St. Augustinegrass; 2 appl, 280 g ai/ha, 29 DAT): 0.00%
- % phytotoxicity (St. Augustinegrass; 2 appl, 280 g ai/ha, 35 DAT): 30.00%
- % phytotoxicity (St. Augustinegrass; 2 appl, 280 g ai/ha, 43 DAT): 11.67%
- % phytotoxicity (St. Augustinegrass; 2 appl, 280 g ai/ha, 51 DAT): 5.00%
- herbicidal efficacy in presence of a safener, in words [4]: does not significantly effect the herbicidal efficacy
- % phytotoxicity (Tall fescue v. Coronado [5]; Agsorb LUM GA granule, 680 g ai/ha): 23.8%
- % phytotoxicity (Tall fescue v. Coronado [5]; Agsorb LUM MS granule, 680 g ai/ha): 9.3%
- % phytotoxicity (Tall fescue v. Coronado [5]; Agsorb RUM GA granule, 680 g ai/ha): 18.8%
- % phytotoxicity (Tall fescue v. Coronado [5]; Bio Dac granule, 680 g ai/ha): 13.8%
- % phytotoxicity (Tall fescue v. Coronado [5]; DG Lite granule, 680 g ai/ha): 20.0%
- % phytotoxicity (Tall fescue v. Coronado [5]; Eco Gran granule, 680 g ai/ha): 20.0%
- % phytotoxicity (Tall fescue v. Coronado [5]; Non dispersing extruded granules, 680 g ai/ha): 21.3%
- % phytotoxicity (Tall fescue v. Coronado [5]; Oil dry granule, 680 g ai/ha): 12.5%
- % phytotoxicity (Tall fescue v. Coronado [5]; Spray, 340 g ai/ha): 18.8%

From patent US20100184596A1, “METHOD FOR THE CONTROL OF WEEDS IN TURF” (SYNGENTA CROP PROTECTION, INC., priority 2007, published 2010)
